Measured values: paper PMC5218480 (PLoS ONE, 2017)

System: MV-4-11 cells
Assay: Gene expression microarray analysis (Affymetrix PrimeView) and GSEA
Assay type: cell-based, human
Set-up: RFU PODN (11730768_x_at) / Fold change /veh PODN (11730768_x_at) / RFU LINC00158 (11744669_a_at) / Fold change /veh LINC00158 (11744669_a_at) / RFU DUSP10 (11751237_a_at) / Fold change /veh DUSP10 (11751237_a_at) / RFU ID3 (11757404_x_at) / Fold change /veh ID3 (11757404_x_at) / RFU PLEKHG5 (11737974_s_at) / Fold change /veh PLEKHG5 (11737974_s_at) / RFU LRRC4B (11730491_at) / Fold change /veh LRRC4B (11730491_at) / RFU GIMAP4 (11747438_a_at) / Fold change /veh GIMAP4 (11747438_a_at) / RFU KRT8 (11758183_x_at) / Fold change /veh KRT8 (11758183_x_at) / RFU CNN1 (11734310_a_at) / Fold change /veh CNN1 (11734310_a_at) / RFU VPS37D (11726825_at) / Fold change /veh VPS37D (11726825_at) / RFU C10orf10 (11716522_x_at) / Fold change /veh C10orf10 (11716522_x_at) / RFU KIR2DL2 /// KIR2DL4 /// KIR2DL5A /// KIR2DL5B /// KIR2DS1 /// KIR2DS2 /// KIR2DS3 /// KIR2DS4 /// KIR3DL3 /// KIR3DL3 /// KIR3DS1 (11738374_at) / Fold change /veh KIR2DL2 /// KIR2DL4 /// KIR2DL5A /// KIR2DL5B /// KIR2DS1 /// KIR2DS2 /// KIR2DS3 /// KIR2DS4 /// KIR3DL3 /// KIR3DL3 /// KIR3DS1 (11738374_at) / RFU C1QL1 (11718748_at) / Fold change /veh C1QL1 (11718748_at) / RFU TMPRSS4 (11747572_a_at) / Fold change /veh TMPRSS4 (11747572_a_at) / RFU HAMP (11756126_x_at) / Fold change /veh HAMP (11756126_x_at) / RFU RNFT2 (11725882_a_at) / Fold change /veh RNFT2 (11725882_a_at) / RFU NR4A2 (11747474_a_at) / Fold change /veh NR4A2 (11747474_a_at) / RFU ABCC12 (11746883_a_at) / Fold change /veh ABCC12 (11746883_a_at) / RFU TMEM136 (11760407_x_at) / Fold change /veh TMEM136 (11760407_x_at) / RFU CLDN22 /// WWC2 (11732394_at) / Fold change /veh CLDN22 /// WWC2 (11732394_at) / RFU HLA-DPB1 (11760878_x_at) / Fold change /veh HLA-DPB1 (11760878_x_at) / RFU SPINT1 (11716480_a_at) / Fold change /veh SPINT1 (11716480_a_at) / RFU GAP43 (11754022_s_at) / Fold change /veh GAP43 (11754022_s_at) / RFU A4GNT (11735810_at) / Fold change /veh A4GNT (11735810_at) / RFU PRB3 (11715151_x_at) / Fold change /veh PRB3 (11715151_x_at) / RFU TUBB4B (11761932_at) / Fold change /veh TUBB4B (11761932_at) / RFU CAPN14 (11732068_a_at) / Fold change /veh CAPN14 (11732068_a_at) / RFU TMCC2 (11721928_a_at) / Fold change /veh TMCC2 (11721928_a_at) / RFU IRGQ (11745062_a_at) / Fold change /veh IRGQ (11745062_a_at) / RFU FAM174B (11720279_a_at) / Fold change /veh FAM174B (11720279_a_at) / RFU TMPRSS4 (11748680_a_at) / Fold change /veh TMPRSS4 (11748680_a_at) / RFU FAM212B (11763350_a_at) / Fold change /veh FAM212B (11763350_a_at) / RFU PLEKHG5 (11743358_a_at) / Fold change /veh PLEKHG5 (11743358_a_at) / RFU ZSCAN30 (11745921_a_at) / Fold change /veh ZSCAN30 (11745921_a_at) / RFU CMKLR1 (11741424_a_at) / Fold change /veh CMKLR1 (11741424_a_at) / RFU LOC101060620 /// MAPK8IP1 (11723275_at) / Fold change /veh LOC101060620 /// MAPK8IP1 (11723275_at) / RFU SPTSSB (11747773_x_at) / Fold change /veh SPTSSB (11747773_x_at) / RFU PRSS12 (11739890_at) / Fold change /veh PRSS12 (11739890_at) / RFU BIN1 (11741810_x_at) / Fold change /veh BIN1 (11741810_x_at) / RFU WNT11 (11732464_a_at) / Fold change /veh WNT11 (11732464_a_at) / RFU C10orf10 (11716521_a_at) / Fold change /veh C10orf10 (11716521_a_at) / RFU C5orf56 (11738089_at) / Fold change /veh C5orf56 (11738089_at) / RFU CYB561 (11721691_x_at) / Fold change /veh CYB561 (11721691_x_at) / RFU ANKRD19P (11752326_a_at) / Fold change /veh ANKRD19P (11752326_a_at) / RFU OR2T12 /// OR2T33 /// OR2T8 (11738714_s_at) / Fold change /veh OR2T12 /// OR2T33 /// OR2T8 (11738714_s_at) / RFU VCAN (11748164_a_at) / Fold change /veh VCAN (11748164_a_at) / RFU JSRP1 (11732532_at) / Fold change /veh JSRP1 (11732532_at) / RFU KRTAP10-11 (11738290_x_at) / Fold change /veh KRTAP10-11 (11738290_x_at) / RFU MYO3A (11730013_a_at) / Fold change /veh MYO3A (11730013_a_at) / RFU EBF3 (11725865_a_at) / Fold change /veh EBF3 (11725865_a_at) / RFU CAMK2N1 (11719241_x_at) / Fold change /veh CAMK2N1 (11719241_x_at) / RFU C5orf56 (11738088_a_at) / Fold change /veh C5orf56 (11738088_a_at) / RFU OLFML3 (11715873_a_at) / Fold change /veh OLFML3 (11715873_a_at) / RFU LOC100653217 /// NTM (11731650_a_at) / Fold change /veh LOC100653217 /// NTM (11731650_a_at) / RFU MAPK11 (11762145_a_at) / Fold change /veh MAPK11 (11762145_a_at) / RFU FIZ1 (11724087_x_at) / Fold change /veh FIZ1 (11724087_x_at) / RFU OASL (11726364_x_at) / Fold change /veh OASL (11726364_x_at) / RFU SOX15 (11748057_x_at) / Fold change /veh SOX15 (11748057_x_at) / RFU CD79A (11719716_a_at) / Fold change /veh CD79A (11719716_a_at) / RFU HIST1H1D (11736915_at) / Fold change /veh HIST1H1D (11736915_at) / RFU CASKIN2 (11723855_a_at) / Fold change /veh CASKIN2 (11723855_a_at) / RFU LOC730098 (11760151_x_at) / Fold change /veh LOC730098 (11760151_x_at) / RFU OR4N2 (11742367_at) / Fold change /veh OR4N2 (11742367_at) / RFU PRRT2 (11749266_a_at) / Fold change /veh PRRT2 (11749266_a_at) / RFU SNX32 (11753110_a_at) / Fold change /veh SNX32 (11753110_a_at) / RFU CDHR5 (11726645_a_at) / Fold change /veh CDHR5 (11726645_a_at) / RFU RCAN1 (11760418_a_at) / Fold change /veh RCAN1 (11760418_a_at) / RFU FAM167A (11723789_a_at) / Fold change /veh FAM167A (11723789_a_at) / RFU FAM26E (11764081_at) / Fold change /veh FAM26E (11764081_at) / RFU ISYNA1 (11749810_s_at) / Fold change /veh ISYNA1 (11749810_s_at) / RFU ACY1 (11761880_at) / Fold change /veh ACY1 (11761880_at) / RFU 11764098_at / Fold change /veh 11764098_at / RFU SAMD14 (11745864_x_at) / Fold change /veh SAMD14 (11745864_x_at) / RFU NPB (11741838_a_at) / Fold change /veh NPB (11741838_a_at) / RFU TMPRSS6 (11731388_a_at) / Fold change /veh TMPRSS6 (11731388_a_at) / RFU KRTAP10-2 (11738614_at) / Fold change /veh KRTAP10-2 (11738614_at) / RFU ARHGAP8 /// PRR5-ARHGAP8 (11727945_x_at) / Fold change /veh ARHGAP8 /// PRR5-ARHGAP8 (11727945_x_at) / RFU KRTAP5-7 /// NADSYN1 (11734609_at) / Fold change /veh KRTAP5-7 /// NADSYN1 (11734609_at) / RFU RASL12 (11751679_a_at) / Fold change /veh RASL12 (11751679_a_at) / RFU CDKN2B (11736163_a_at) / Fold change /veh CDKN2B (11736163_a_at) / RFU PRF1 (11729649_at) / Fold change /veh PRF1 (11729649_at) / RFU, ZNF638 /// ZNF638-IT1 / Fold change vs veh, ZNF638 /// ZNF638-IT1 / RFU, PANK3 / Fold change vs veh, PANK3 / RFU, SH3YL1 / Fold change vs veh, SH3YL1 / RFU, ZEB2 / Fold change vs veh, ZEB2 / RFU, NRIP1 / Fold change vs veh, NRIP1 / RFU, PTTG1IP / Fold change vs veh, PTTG1IP / RFU, CAPN2 / Fold change vs veh, CAPN2 / RFU, MED14 / Fold change vs veh, MED14 / RFU, SNORA58 / Fold change vs veh, SNORA58 / RFU, C1orf63 / Fold change vs veh, C1orf63 / RFU, LRRFIP1 / Fold change vs veh, LRRFIP1 / RFU, NDUFAF7 / Fold change vs veh, NDUFAF7 / RFU, SLC12A2 / Fold change vs veh, SLC12A2 / RFU, IBTK / Fold change vs veh, IBTK / RFU, ESF1 / Fold change vs veh, ESF1 / Fold change vs veh, TMEM50B / RFU, TAOK1 / Fold change vs veh, TAOK1 / RFU, ACBD3 / Fold change vs veh, ACBD3 / RFU, TMA16 / Fold change vs veh, TMA16 / RFU, RWDD3 / Fold change vs veh, RWDD3 / RFU, BCAT1 / Fold change vs veh, BCAT1 / RFU, EDEM3 / Fold change vs veh, EDEM3 / RFU, TMEM33 / Fold change vs veh, TMEM33 / RFU, WDR75 / Fold change vs veh, WDR75 / RFU, AHCTF1 / Fold change vs veh, AHCTF1 / RFU, TFRC / Fold change vs veh, TFRC / RFU, ZDHHC17 / Fold change vs veh, ZDHHC17 / RFU, NOM1 / Fold change vs veh, NOM1 / RFU, ARL8B / Fold change vs veh, ARL8B / RFU, ZBTB11 / Fold change vs veh, ZBTB11 / RFU, TAMM41 / Fold change vs veh, TAMM41 / RFU, KIAA1704 /// LOC100996395 / Fold change vs veh, KIAA1704 /// LOC100996395 / RFU, ING1 / Fold change vs veh, ING1 / RFU, TRMT61B / Fold change vs veh, TRMT61B / RFU, FUBP3 / Fold change vs veh, FUBP3 / RFU, TP53 / Fold change vs veh, TP53 / RFU, TNKS2 / Fold change vs veh, TNKS2 / RFU, ZFP14 / Fold change vs veh, ZFP14 / RFU, ACTR2 / Fold change vs veh, ACTR2 / RFU, PPP3R1 / Fold change vs veh, PPP3R1 / RFU, PIK3R1 / Fold change vs veh, PIK3R1 / RFU, HNRNPA1 / Fold change vs veh, HNRNPA1 / RFU, RNF170 / Fold change vs veh, RNF170 / RFU, ZNF28 / Fold change vs veh, ZNF28 / RFU, RNGTT / Fold change vs veh, RNGTT / RFU, OGT / Fold change vs veh, OGT / RFU, BRD1 / Fold change vs veh, BRD1 / RFU, MARS / Fold change vs veh, MARS / RFU, ZNF655 / Fold change vs veh, ZNF655 / RFU, FAHD1 / Fold change vs veh, FAHD1 / RFU, BDP1 / Fold change vs veh, BDP1 / RFU, LRRCC1 / Fold change vs veh, LRRCC1 / RFU, ARID1A / Fold change vs veh, ARID1A / RFU, ZNF146 / Fold change vs veh, ZNF146 / RFU, ZNF330 / Fold change vs veh, ZNF330 / RFU, GPN3 / Fold change vs veh, GPN3 / RFU, C9orf123 / Fold change vs veh, C9orf123 / RFU, N4BP2L2 / Fold change vs veh, N4BP2L2 / RFU, ARFIP1 / Fold change vs veh, ARFIP1 / RFU, FAM179B / Fold change vs veh, FAM179B / RFU, BCL10 / Fold change vs veh, BCL10 / RFU, UHRF1BP1L / Fold change vs veh, UHRF1BP1L / RFU, BET1 / Fold change vs veh, BET1 / RFU, CNOT2 / Fold change vs veh, CNOT2 / RFU, ZNF268 / Fold change vs veh, ZNF268 / Fold change vs veh, ZNF507 / RFU, DGCR2 / Fold change vs veh, DGCR2 / RFU, WDSUB1 / Fold change vs veh, WDSUB1 / Fold change vs veh, HSP90B1 /// MIR3652 / RFU, ADSS / Fold change vs veh, ADSS / RFU, GK / Fold change vs veh, GK / RFU, ZNF148 / Fold change vs veh, ZNF148 / RFU, TAF9 / Fold change vs veh, TAF9 / RFU, SLC1A5 / Fold change vs veh, SLC1A5 / RFU, SLMO2 / Fold change vs veh, SLMO2 / RFU, ABCC4 / Fold change vs veh, ABCC4 / RFU, LOC101060439 /// RAP1B / Fold change vs veh, LOC101060439 /// RAP1B / RFU, RFX7 / Fold change vs veh, RFX7 / RFU, GTPBP10 / Fold change vs veh, GTPBP10 / RFU, CNEP1R1 / Fold change vs veh, CNEP1R1 / RFU, BIVM-ERCC5 /// ERCC5 / Fold change vs veh, BIVM-ERCC5 /// ERCC5 / RFU, ILF3 / Fold change vs veh, ILF3 / RFU 11762660_at / Fold change /veh 11762660_at / RFU VCAN (11757783_s_at) / Fold change /veh VCAN (11757783_s_at) / RFU DDX43 (11728927_at) / Fold change /veh DDX43 (11728927_at) / RFU KRT8 (11758188_x_at) / Fold change /veh KRT8 (11758188_x_at) / RFU NKD1 (11759106_at) / Fold change /veh NKD1 (11759106_at) / RFU SRD5A1 (11742802_a_at) / Fold change /veh SRD5A1 (11742802_a_at) / RFU TPSAB1 /// TPSB2 (11721975_s_at) / Fold change /veh TPSAB1 /// TPSB2 (11721975_s_at) / RFU GSTM3 (11746129_a_at) / Fold change /veh GSTM3 (11746129_a_at) / RFU IL23R (11737362_x_at) / Fold change /veh IL23R (11737362_x_at) / RFU TMEM51 (11727254_a_at) / Fold change /veh TMEM51 (11727254_a_at) / RFU PIWIL2 (11732686_x_at) / Fold change /veh PIWIL2 (11732686_x_at) / RFU ORM1 (11744905_x_at) / Fold change /veh ORM1 (11744905_x_at) / RFU CCDC152 (11743942_at) / Fold change /veh CCDC152 (11743942_at) / RFU ECM1 (11717891_a_at) / Fold change /veh ECM1 (11717891_a_at) / RFU IL23R (11748794_a_at) / Fold change /veh IL23R (11748794_a_at) / RFU TNFAIP8L3 (11732012_x_at) / Fold change /veh TNFAIP8L3 (11732012_x_at) / RFU MBOAT4 (11741988_at) / Fold change /veh MBOAT4 (11741988_at) / RFU 11764193_at / Fold change /veh 11764193_at / RFU TMEM53 (11763286_at) / Fold change /veh TMEM53 (11763286_at) / RFU MAGEB2 (11727129_at) / Fold change /veh MAGEB2 (11727129_at) / RFU TMEM200A (11744735_a_at) / Fold change /veh TMEM200A (11744735_a_at) / RFU CCDC152 (11751479_a_at) / Fold change /veh CCDC152 (11751479_a_at) / RFU FAM211A (11726209_a_at) / Fold change /veh FAM211A (11726209_a_at) / RFU RGS16 (11746705_a_at) / Fold change /veh RGS16 (11746705_a_at) / RFU VCAN (11755009_s_at) / Fold change /veh VCAN (11755009_s_at) / RFU RHOB (11743442_s_at) / Fold change /veh RHOB (11743442_s_at) / RFU RGS16 (11720943_a_at) / Fold change /veh RGS16 (11720943_a_at) / RFU RGS16 (11720944_at) / Fold change /veh RGS16 (11720944_at) / RFU, VPS4B / Fold change vs veh, VPS4B / RFU, CREB1 / Fold change vs veh, CREB1 / RFU, DNAJC13 / Fold change vs veh, DNAJC13 / RFU, GNAQ / Fold change vs veh, GNAQ / RFU, CDK5R1 / Fold change vs veh, CDK5R1 / RFU, ZRANB3 / Fold change vs veh, ZRANB3 / RFU, CUL4A / Fold change vs veh, CUL4A / RFU, CCNY / Fold change vs veh, CCNY / RFU, UFL1 / Fold change vs veh, UFL1 / RFU, COG3 / Fold change vs veh, COG3 / RFU, DIAPH2 / Fold change vs veh, DIAPH2 / RFU, SKA2 / Fold change vs veh, SKA2 / RFU, AFF3 / Fold change vs veh, AFF3 / RFU, LMF1 / Fold change vs veh, LMF1 / RFU, IPO11 / Fold change vs veh, IPO11 / RFU, DFFB / Fold change vs veh, DFFB / RFU, FOXP1 / Fold change vs veh, FOXP1 / RFU, CARD8 / Fold change vs veh, CARD8 / RFU, STRN3 / Fold change vs veh, STRN3 / RFU, ADK / Fold change vs veh, ADK / RFU, RASSF2 / Fold change vs veh, RASSF2 / RFU, WIPF1 / Fold change vs veh, WIPF1 / RFU, LARP1B / Fold change vs veh, LARP1B / RFU, RASA1 / Fold change vs veh, RASA1 / RFU, RB1 / Fold change vs veh, RB1 / RFU, PPFIA1 / Fold change vs veh, PPFIA1 / RFU, MAT2A / Fold change vs veh, MAT2A / RFU, CCT5 / Fold change vs veh, CCT5 / RFU, WDR92 / Fold change vs veh, WDR92 / RFU, CUX1 / Fold change vs veh, CUX1 / RFU, TTC7A / Fold change vs veh, TTC7A / RFU, TMEM135 / Fold change vs veh, TMEM135 / RFU, DEPTOR / Fold change vs veh, DEPTOR / RFU, CPM / Fold change vs veh, CPM / RFU, DNAJB6 / Fold change vs veh, DNAJB6 / RFU, CACNA2D3 / Fold change vs veh, CACNA2D3 / RFU, DTX4 / Fold change vs veh, DTX4 / RFU, TFCP2 / Fold change vs veh, TFCP2 / RFU, GMCL1 /// GMCL1P1 / Fold change vs veh, GMCL1 /// GMCL1P1 / RFU, AEBP2 / Fold change vs veh, AEBP2 / RFU, SNHG1 /// SNORD22 /// SNORD25 /// SNORD26 /// SNORD27 /// SNORD28 /// SNORD29 /// SNORD31 / Fold change vs veh, SNHG1 /// SNORD22 /// SNORD25 /// SNORD26 /// SNORD27 /// SNORD28 /// SNORD29 /// SNORD31 / Fold change (Aza/veh), C12orf56 (ProbeSet 11735607_a_at) / Fold change (ACY-1035/veh), C12orf56 (ProbeSet 11735607_a_at) / Fold change (Aza/veh), FGFR1OP (ProbeSet 11751329_s_at) / Fold change (ACY-1035/veh), FGFR1OP (ProbeSet 11751329_s_at) / Fold change (Aza/veh), VPS36 (ProbeSet 11739960_a_at) / Fold change (ACY-1035/veh), VPS36 (ProbeSet 11739960_a_at) / RFU SYPL1 (11715823_x_at) / Fold change /veh SYPL1 (11715823_x_at) / RFU IGFBP7 (11715501_s_at) / Fold change /veh IGFBP7 (11715501_s_at) / RFU REEP3 (11722064_at) / Fold change /veh REEP3 (11722064_at) / RFU IGLL1 (11728026_x_at) / Fold change /veh IGLL1 (11728026_x_at): dose or concentration left out as unconfirmed
Settings: ProbeSet 11722022_s_at; LIST D

With `Nc1ccc(-c2cccs2)cc1NC(=O)c1ccc2c(c1)cc(C1CC1)n2CCN1CCOCC1` [ACY-1035] the “Fold change vs veh, CDK5R1” value was 0.91.
